The record followed here is patent publication US7977322B2 (Vertex Pharmaceuticals Incorporated, priority 2004, dated 2011).

This experiment deals with T1, ΔF508-CFTR (Homo sapiens, UniProt P13569, DEL508-508).
T1 construct: expressed in transfected cells
The experiment in a line: Membrane potential optical (FRET/VIPR) assay, identification of correction compounds. In kind it is cell-based. The settings on record: Table 3, assay not given; for Emax: read-out: % Activity / % Efficacy (relative efficacy). The source says: I) Membrane Potential Optical Methods for Assaying ΔF508-CFTR Modulation Properties of Compounds
These voltage sensitive assays are based on the change in fluorescence resonant energy transfer (FRET) between the membrane-soluble, voltage-sensitive dye, DiSBAC2(3), and a fluorescent phospholipid, CC2-DMPE, which is attached to the outer leaflet of the plasma membrane and acts as a FRET donor. Changes in membrane potential (Vm) cause the negatively charged DiSBAC2(3) to redistribute across the plasma membrane and the amount of energy transfer from CC2-DMPE changes accordingly. The changes in fluorescence emission were monitored using VIPR™ II, which is an integrated liquid handler and fluorescent detector designed to conduct cell-based screens in 96- or 384-well microtiter plates.
Identification of Correction Compounds
To identify small molecules that correct the trafficking defect associated with ΔF508-CFTR; a single-addition HTS assay format was developed. The cells were incubated in serum-free medium for 16 hrs at 37° C. in the presence or absence (negative control) of test compound. As a positive control, cells plated in 384-well plates were incubated for 16 hrs at 27° C. to “temperature-correct” ΔF508-CFTR. The cells were subsequently rinsed 3× with Krebs Ringers solution and loaded with the voltage-sensitive dyes. To activate ΔF508-CFTR, 10 μM forskolin and the CFTR potentiator, genistein (20 μM), were added along with Cl^− free medium to each well. The addition of Cl^− free medium promoted Cl^− efflux in response to ΔF508-CFTR activation and the resulting membrane depolarization was optically monitored using the FRET-based voltage-sensor dyes.
• Bath Solution #1: (in mM) NaCl 160, KCl 4.5, CaCl2 2, MgCl2 1, HEPES 10, pH 7.4 with NaOH. • Chloride-free bath solution: Chloride salts in Bath Solution #1 are substituted with gluconate salts. • CC2-DMPE: Prepared as a 10 mM stock solution in DMSO and stored at −20° C. • DiSBAC2(3): Prepared as a 10 mM stock in DMSO and stored at −20° C.
NIH3T3 mouse fibroblasts stably expressing ΔF508-CFTR are used for optical measurements of membrane potential. The cells are maintained at 37° C. in 5% CO2 and 90% humidity in Dulbecco's modified Eagle's medium supplemented with 2 mM glutamine, 10% fetal bovine serum, 1×NEAA, β-ME, 1×pen/strep, and 25 mM HEPES in 175 cm^2 culture flasks. For all optical assays, the cells were seeded at 30,000/well in 384-well matrigel-coated plates and cultured for 2 hrs at 37° C. before culturing at 27° C. for 24 hrs. for the potentiator assay.

SMILES strings stand for the structures.

T1 sequence (P13569 with tags, fused parts or gaps DEL508-508): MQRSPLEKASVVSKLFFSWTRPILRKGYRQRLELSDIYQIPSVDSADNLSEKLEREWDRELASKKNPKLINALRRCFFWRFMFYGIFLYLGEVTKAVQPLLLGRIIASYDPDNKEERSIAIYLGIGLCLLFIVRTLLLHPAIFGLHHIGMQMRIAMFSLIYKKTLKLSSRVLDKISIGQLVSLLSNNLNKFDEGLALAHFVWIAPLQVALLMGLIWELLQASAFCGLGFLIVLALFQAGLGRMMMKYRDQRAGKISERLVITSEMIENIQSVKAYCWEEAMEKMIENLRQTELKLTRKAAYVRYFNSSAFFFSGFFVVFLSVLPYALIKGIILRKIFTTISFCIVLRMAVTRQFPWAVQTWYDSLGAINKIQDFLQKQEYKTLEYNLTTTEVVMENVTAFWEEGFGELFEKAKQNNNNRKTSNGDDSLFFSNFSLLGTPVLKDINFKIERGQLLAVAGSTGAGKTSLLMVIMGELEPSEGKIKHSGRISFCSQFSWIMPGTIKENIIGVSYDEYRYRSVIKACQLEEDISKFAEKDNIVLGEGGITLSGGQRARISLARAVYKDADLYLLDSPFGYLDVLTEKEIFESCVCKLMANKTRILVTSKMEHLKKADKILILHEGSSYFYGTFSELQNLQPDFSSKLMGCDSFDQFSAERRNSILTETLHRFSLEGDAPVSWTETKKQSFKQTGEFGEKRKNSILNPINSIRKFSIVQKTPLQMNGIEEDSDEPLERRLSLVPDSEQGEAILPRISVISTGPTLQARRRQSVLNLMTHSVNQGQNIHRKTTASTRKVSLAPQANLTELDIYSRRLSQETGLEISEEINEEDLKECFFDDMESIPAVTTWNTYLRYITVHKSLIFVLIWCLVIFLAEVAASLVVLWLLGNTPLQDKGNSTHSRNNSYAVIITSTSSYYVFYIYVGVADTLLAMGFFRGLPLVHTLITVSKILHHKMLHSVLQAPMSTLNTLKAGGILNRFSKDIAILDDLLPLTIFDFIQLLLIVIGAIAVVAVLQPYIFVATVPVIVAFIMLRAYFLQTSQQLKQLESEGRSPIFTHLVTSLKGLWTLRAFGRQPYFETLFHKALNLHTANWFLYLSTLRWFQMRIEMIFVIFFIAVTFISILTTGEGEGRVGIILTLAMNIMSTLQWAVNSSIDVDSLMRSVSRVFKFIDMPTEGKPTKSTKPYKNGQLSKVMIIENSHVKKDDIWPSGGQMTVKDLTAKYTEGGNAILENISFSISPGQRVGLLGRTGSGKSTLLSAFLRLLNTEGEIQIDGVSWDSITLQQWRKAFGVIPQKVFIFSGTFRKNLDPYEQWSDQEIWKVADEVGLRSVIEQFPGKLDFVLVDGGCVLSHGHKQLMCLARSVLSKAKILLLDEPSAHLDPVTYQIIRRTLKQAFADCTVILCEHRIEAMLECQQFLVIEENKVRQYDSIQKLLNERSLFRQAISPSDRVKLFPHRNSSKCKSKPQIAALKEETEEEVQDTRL

In the case of `COc1ccc(C2(C(=O)Nc3ncc(Cc4ccc(Cl)cc4)s3)CC2)cc1` [Example 13], the EC50 was less than 10 µM and the Emax is greater than 100%.

Turning to `COc1ccc(C2(C(=O)Nc3nc(-c4ccccc4)cs3)CC2)cc1` [Example 17], the EC50 is less than 10 µM and the Emax was greater than 100%.

In the case of `O=C(Nc1ncc(Cc2ccccc2Cl)s1)C1(c2ccc(F)cc2)CCCC1` [Example 26], the EC50 is less than 10 µM and the Emax was greater than 100%.

In the case of `COc1ccccc1Cc1cnc(NC(=O)C2(c3ccc(Cl)cc3)CC2)s1` [Example 32], the concentration giving a half-maximal response (EC50) is less than 10 µM and the Emax was greater than 100%.

As to `COc1ccc(C2(C(=O)Nc3ncc(Sc4ccccc4Cl)s3)CC2)cc1` [Example 36], the half-maximal effective concentration (EC50) is less than 10 µM and the Emax was in the range of 25 to 100%.

In the case of `COc1ccc(C2(C(=O)Nc3ncc(Sc4cccc(Cl)c4)s3)CC2)cc1` [Example 37], the EC50 is less than 10 µM and the Emax is greater than 100%.

Consider `COc1ccc(C2(C(=O)Nc3ncc(C(=O)c4ccccc4Cl)s3)CC2)cc1` [Example 44], for which the EC50 was less than 10 µM and the Emax is greater than 100%.

As for `COc1ccc(C2(C(=O)Nc3nc4ccc(Cl)cc4s3)CC2)cc1` [Example 47], the 50% effective concentration (EC50) is less than 10 µM and the Emax is 25 to 100%.

Consider `COc1ccc(C2(C(=O)Nc3ncc(Cc4ccccc4Cl)s3)CC2)cc1OC` [Example 55], for which the “% Activity / % Efficacy (relative efficacy)” value was “+++ (“+++” means>100%)” and the concentration for a half-maximal effect (EC50) was less than 10 µM.

Consider `O=C(Nc1ncc(Cc2ccccc2Cl)s1)C1(c2ccc3c(c2)OCO3)CC1` [Example 56], for which the “% Activity / % Efficacy (relative efficacy)” value is on record as “++ (“++” means between 25% to 100%)” and the half-maximal effective concentration (EC50) is less than 10 µM.

As to `COc1ccc(C2(C(=O)Nc3ncc(Cc4ccccc4OC)s3)CCOCC2)cc1` [Example 57], the “% Activity / % Efficacy (relative efficacy)” value is “+++ (“+++” means>100%)” and the concentration giving a half-maximal response (EC50) is less than 10 µM.

Turning to `COc1ccccc1Cc1cnc(NC(=O)C2(c3ccc(OC)c(OC)c3)CC2)s1` [Example 58], the “% Activity / % Efficacy (relative efficacy)” value was “+++ (“+++” means>100%)” and the EC50 was less than 10 µM.

With `COc1ccc(C2(C(=O)Nc3ncc(Cc4ccccc4C#N)s3)CC2)cc1OC` [Example 61], the “% Activity / % Efficacy (relative efficacy)” value is “+++ (“+++” means>100%)” and the half-maximal effective concentration (EC50) is less than 10 µM.

In the case of `N#Cc1ccccc1Cc1cnc(NC(=O)C2(c3ccc4c(c3)OCO4)CC2)s1` [Example 62], the “% Activity / % Efficacy (relative efficacy)” value was “++ (“++” means between 25% to 100%)” and the 50% effective concentration (EC50) lay in the range of 10 to 25 µM.

Turning to `COc1ccc(C2(C(=O)Nc3ncc(Cc4ccccc4Cl)n3C)CC2)cc1` [Example 63], the “% Activity / % Efficacy (relative efficacy)” value is recorded as “+++ (“+++” means>100%)” and the EC50 was less than 10 µM.

Turning to `COc1ccc(C2(C(=O)Nc3ncc(C)s3)CC2)cc1` [Example 64], the “% Activity / % Efficacy (relative efficacy)” value was “+++ (“+++” means>100%)” and the EC50 was less than 10 µM.

Take `COc1ccccc1C1(C(=O)Nc2ncc(Cc3ccccc3Cl)s2)CC1` [Example 65]: the concentration for a half-maximal effect (EC50) is less than 10 µM and the Emax is greater than 100%.

In the case of `COc1cccc(C2(C(=O)Nc3ncc(Cc4ccccc4Cl)s3)CC2)c1` [Example 66], the “% Activity / % Efficacy (relative efficacy)” value is recorded as “+++ (“+++” means>100%)” and the 50% effective concentration (EC50) was less than 10 µM.

Regarding `COc1cccc(C2(C(=O)Nc3ncc(Cc4ccccc4OC)s3)CC2)c1` [Example 67], the “% Activity / % Efficacy (relative efficacy)” value is “++ (“++” means between 25% to 100%)” and the half-maximal effective concentration (EC50) fell in the range of 25 to 60 µM.

For `COc1ccccc1C1(C(=O)Nc2ncc(Cc3ccccc3C#N)s2)CC1` [Example 68], the half-maximal effective concentration (EC50) is less than 10 µM and the Emax was 25 to 100%.

For `COc1cccc(C2(C(=O)Nc3ncc(Cc4ccccc4C#N)s3)CC2)c1` [Example 69], the “% Activity / % Efficacy (relative efficacy)” value is on record as “+++ (“+++” means>100%)” and the EC50 was less than 10 µM.

Consider `COc1ccccc1Cc1cnc(NC(=O)C2(c3ccccc3OC)CC2)s1` [Example 70], for which the “% Activity / % Efficacy (relative efficacy)” value is listed as “++ (“++” means between 25% to 100%)” and the 50% effective concentration (EC50) was less than 10 µM.

`COC(=O)Cn1cc(Cc2ccccc2Cl)sc1=NC(=O)C1(c2ccc(OC)cc2)CC1` [Example 72]: the “% Activity / % Efficacy (relative efficacy)” value was “++ (“++” means between 25% to 100%)” and the EC50 is 25 to 60 µM.

As for `CCN(CC)CCn1cc(Cc2ccccc2Cl)s/c1=N/C(=O)C1(c2ccc(OC)cc2)CC1` [Example 73], the EC50 was in the range of 25 to 60 µM and the Emax was less than 25%.

For `CCN(CC)CCn1cc(Cc2ccccc2Cl)s/c1=N/C(=O)C1(c2ccc(OC)cc2)CC1` [Example 74], the “% Activity / % Efficacy (relative efficacy)” value was “++ (“++” means between 25% to 100%)” and the EC50 lay in the range of 25 to 60 µM.

In the case of `CCN(CC)CCN(C(=O)C1(c2ccc(OC)cc2)CC1)c1ncc(Cc2ccccc2Cl)s1` [Example 75], the “% Activity / % Efficacy (relative efficacy)” value was “++ (“++” means between 25% to 100%)” and the EC50 was 25 to 60 µM.

With `COc1ccc(C2(C(=O)Nc3ncc(Cc4ccccc4C(N)=O)s3)CC2)cc1` [Example 76], the “% Activity / % Efficacy (relative efficacy)” value is recorded as “+++ (“+++” means>100%)” and the half-maximal effective concentration (EC50) was less than 10 µM.

For the compound `COc1ccc(C2(C(=O)Nc3nc(-c4ccc(C)cc4)cs3)CC2)cc1` [Example 77], the “% Activity / % Efficacy (relative efficacy)” value is recorded as “+++ (“+++” means>100%)” and the EC50 was less than 10 µM.

In the case of `COc1ccc(C2(C(=O)Nc3nc(-c4ccc(Cl)cc4)cs3)CC2)cc1` [Example 78], the “% Activity / % Efficacy (relative efficacy)” value is recorded as “+++ (“+++” means>100%)” and the EC50 is less than 10 µM.

For the compound `COc1ccc(-c2csc(NC(=O)C3(c4ccc(OC)cc4)CC3)n2)cc1` [Example 79], the “% Activity / % Efficacy (relative efficacy)” value was “+++ (“+++” means>100%)” and the EC50 was less than 10 µM.

Take `O=C(Nc1nc(-c2ccccc2)cs1)C1(c2ccc3c(c2)OCO3)CC1` [Example 80]: the “% Activity / % Efficacy (relative efficacy)” value is given as “+++ (“+++” means>100%)” and the concentration giving a half-maximal response (EC50) is less than 10 µM.

Take `O=C(Nc1nc(-c2ccccc2Cl)cs1)C1(c2ccc3c(c2)OCO3)CC1` [Example 81]: the “% Activity / % Efficacy (relative efficacy)” value is “+++ (“+++” means>100%)” and the EC50 is less than 10 µM.

On to `Cc1ccc(-c2csc(NC(=O)C3(c4ccc5c(c4)OCO5)CC3)n2)cc1` [Example 82], for which the “% Activity / % Efficacy (relative efficacy)” value is given as “+++ (“+++” means>100%)” and the EC50 was less than 10 µM.

On to `Cc1cnc(NC(=O)C2(c3ccc4c(c3)OCO4)CC2)s1` [Example 85], for which the “% Activity / % Efficacy (relative efficacy)” value is recorded as “+++ (“+++” means>100%)” and the EC50 was less than 10 µM.

For the compound `O=C(Nc1ncc(-c2ccccc2)s1)C1(c2ccc3c(c2)OCO3)CC1` [Example 86], the “% Activity / % Efficacy (relative efficacy)” value was “+++ (“+++” means>100%)” and the EC50 was less than 10 µM.

On to `COc1ccc(C2(C(=O)Nc3ncc([S+]([O-])c4ccccc4OC)s3)CC2)cc1` (centres unmarked) [Example 87], for which the “% Activity / % Efficacy (relative efficacy)” value was “+++ (“+++” means>100%)” and the concentration for a half-maximal effect (EC50) is less than 10 µM.

Consider `COc1ccc(C2(C(=O)Nc3ncc(S(=O)(=O)c4ccccc4OC)s3)CC2)cc1` [Example 88], for which the “% Activity / % Efficacy (relative efficacy)” value is “+++ (“+++” means>100%)” and the EC50 was less than 10 µM.

In the case of `COc1ccc(C2(C(=O)Nc3ncc(Cc4cccc(F)c4Cl)s3)CC2)cc1` [Example 89], the concentration giving a half-maximal response (EC50) is less than 10 µM and the Emax was greater than 100%.

For `COc1ccc(C2(C(=O)Nc3ncc(Cc4cc(F)ccc4Cl)s3)CC2)cc1` [Example 90], the “% Activity / % Efficacy (relative efficacy)” value is given as “++ (“++” means between 25% to 100%)” and the concentration for a half-maximal effect (EC50) was less than 10 µM.

For `NC(=O)C1(C(=O)Nc2ncc(Cc3ccccc3Cl)s2)CC1` [Example 91], the “% Activity / % Efficacy (relative efficacy)” value was “++ (“++” means between 25% to 100%)” and the EC50 was 10 to 25 µM.

`O=C(Nc1ncc(Oc2ccccc2Cl)s1)C1(c2ccc3c(c2)OCO3)CC1` [Example 93]: the “% Activity / % Efficacy (relative efficacy)” value is given as “+++ (“+++” means>100%)” and the EC50 is less than 10 µM.

Regarding `COc1ccccc1Oc1cnc(NC(=O)C2(c3ccc4c(c3)OCO4)CC2)s1` [Example 94], the “% Activity / % Efficacy (relative efficacy)” value was “+++ (“+++” means>100%)” and the EC50 is less than 10 µM.

Consider `COc1ccc(C2(C(=O)Nc3ncc(Sc4ccccc4N)s3)CC2)cc1` [Example 95], for which the half-maximal effective concentration (EC50) was less than 10 µM and the Emax was 25 to 100%.

As a reminder, the EC50 is the concentration giving half of the maximal effect.
